In publication PMC5775280, “Functional Characterization and Signaling Systems of Corazonin and Red Pigment Concentrating Hormone in the Green Shore Crab, Carcinus maenas” (Frontiers in Neuroscience, 2018):
Peptide text beside a SMILES is read from it.

Experiments:
[1] = target: T1, C. maenas CRZR (corazonin receptor) (Carcinus maenas, UniProt A0A2L0WQE5); test: Aequorin luminescence Ca2+ mobilization in CHO-K1-Aeq cells transiently expressing CRZR; assay type: cell-based; conditions: for EC50: CHO-K1-Aeq cells (without Gα16) transiently expressing CRZR, luminescence response normalized to total Ca2+ response, dose response curves, means of n = 4; for bioluminescent response at CRZR compared with the homologous crab/insect ligand (Arg^7-CRZ): several independent experiments
T1 sequence (A0A2L0WQE5 1-617): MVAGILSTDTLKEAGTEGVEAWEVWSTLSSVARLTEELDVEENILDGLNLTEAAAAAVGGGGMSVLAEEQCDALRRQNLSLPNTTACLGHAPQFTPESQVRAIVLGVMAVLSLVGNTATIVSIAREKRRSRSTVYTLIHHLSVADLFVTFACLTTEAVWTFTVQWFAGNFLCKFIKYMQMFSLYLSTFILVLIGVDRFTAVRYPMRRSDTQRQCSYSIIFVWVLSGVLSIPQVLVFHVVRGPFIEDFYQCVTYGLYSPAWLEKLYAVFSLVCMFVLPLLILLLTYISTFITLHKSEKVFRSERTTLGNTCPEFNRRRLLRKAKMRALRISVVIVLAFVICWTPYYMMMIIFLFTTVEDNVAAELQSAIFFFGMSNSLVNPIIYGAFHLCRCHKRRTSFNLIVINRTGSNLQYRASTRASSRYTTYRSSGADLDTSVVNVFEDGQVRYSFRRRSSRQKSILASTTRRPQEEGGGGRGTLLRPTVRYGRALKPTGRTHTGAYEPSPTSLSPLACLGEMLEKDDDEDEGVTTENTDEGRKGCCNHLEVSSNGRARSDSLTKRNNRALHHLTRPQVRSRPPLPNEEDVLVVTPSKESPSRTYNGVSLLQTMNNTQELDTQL
Protocol: (§1) Chinese hamster ovary (CHO-K1) cells containing stably expressed apoaequorin (Perkin Elmer, Boston, MA) and either Gα16 or Gq subunit (control cells) were cultured in Dulbecco's Modified Eagle Medium (DMEM) F-12 Nutrient Mixture GlutaMax (Gibco®) supplemented with 10% fetal bovine serum (Gibco®). Cells were maintained in vented T75 flasks at 37°C in 5% CO2.
(§2) Cells grown in a monolayer to approximately 60% confluency in T75 flasks were transfected with pcDNA3.1 constructs using FugeneHD (Promega) according to the manufacturer's recommendations. Briefly, transfection medium was prepared by combining 800 μl Opti-MEM® (Gibco) with 10 μg vector and 30 μl Fugene HD in a 2 ml polystyrene tube and incubated for 10 min at room temperature. The transfection reagent was added to 5 ml of fresh culture media and the cells incubated overnight at 37°C in 5% CO2. After 24 h, an additional 10 ml of culture media were added to the flasks and the cells returned to 37°C at 5% CO2 for a further overnight incubation.
(§3) On the day of the assay, cells were detached from the culture flask by incubating for 12 min in 5 ml 0.2% EDTA in PBS. The cells were washed with 10 ml DMEM clear DMEM/F-12 containing L-glutamine, 15 mM HEPES and moved to 50 ml centrifuge tubes. Cells were centrifuged for 5 min at 260 g and resuspended to a concentration of 5 × 10^6 cells ml^−1 in 0.2 μm filtered BSA medium (DMEM/F-12 containing L-glutamine, 15 mM HEPES + 0.1% BSA). Coelenterazine h (Invitrogen, Paisley, UK) was added to a concentration of 5 μM and the cells incubated for 4 h in the dark at room temperature whilst gently rocking. The cells were diluted 10-fold and incubated for a further 60 min before use in the assay. Synthetic peptides (GeneCust, Dudelange, Luxembourg) were reconstituted in 30% acetonitrile, dried in small aliquots by vacuum centrifugation and subsequently redissolved in BSA medium. Fifty microliter aliquots were then dispensed into quadruplicate wells of a white 96-well plate (OptiPlate, PerkinElmer). Cell suspensions were gently stirred and injected in 50 μl aliquots into each well using a Mithras LB 940 microplate reader (Berthold Technologies, Bad-Wildbad, Germany) and light emission (Ca^2+ response) recorded for 30 s. Cells were then lysed by injection of 0.3% Triton-X in BSA medium and light emission recorded for a further 10 s to measure total Ca^2+ response. BSA medium was used for blank measurements (6 replicate wells per plate) and mock transfection with empty vectors carried out for negative controls. Data was analyzed using MikroWin v5.18 (Mikrotek Laborsysteme GmbH) and SigmaPlot v.13 (Systat Software, Inc.). Receptor response was normalized against total Ca^2+ response.

[2] = tested on: semi-isolated heart; test: Cardioactivity on semi-isolated heart preparations; design: species or system Carcinus maenas; conditions: superfusion
Protocol: Cardioactivity of […], and ACP was performed on semi-isolated heart preparations of C. maenas. Crabs (ca. 65 mm carapace width) were ice-anesthetized and rapidly decerebrated before removing all limbs and the dorsal carapace to expose the heart and pericardial cavity. The heart was connected to a force transducer (MLT0210/A) via a micro fishing hook (size 28) and fine nylon (0.08 mm) monofilament. Connection to a PC with Chart 4.0 was via a Bridge Pod (ML301) and Powerlab 4/20 (AD Instruments Pty Ltd, Castle Hill, NSW, Australia). Transducer gain was set at maximum sensitivity (200 μV). Heart preparations were initially perfused with C. maenas physiological saline (Saver et al., [1999]) at room temperature (20°C). Once a stable heart output was achieved, hearts were firstly perfused with 1 ml saline, followed by increasing concentrations of peptides, applied in 1 ml. Crustacean cardioactive peptide (CCAP) (Bachem, Bubendorf, Switzerland), or proctolin (Sigma, Poole, UK) were positive controls (10^-11-10^-7 M). Test peptides ([…]) were perfused at 10^-8-10^-6 M for approximately 2 min at each concentration.

[3] = target: T2, C. maenas RPCHR (red pigment concentrating hormone receptor) (Carcinus maenas, UniProt A0A2L0WQF2); test: Aequorin luminescence Ca2+ mobilization in CHO-K1-Aeq cells transiently expressing RPCHR; assay type: cell-based; conditions: for binding to / activation of RPCHR: micromolar concentrations; for EC50: CHO-K1-Aeq cells (without Gα16) transiently expressing RPCHR, luminescence response normalized to total Ca2+ response, dose response curves, means of n = 4
T2 sequence (A0A2L0WQF2 1-529): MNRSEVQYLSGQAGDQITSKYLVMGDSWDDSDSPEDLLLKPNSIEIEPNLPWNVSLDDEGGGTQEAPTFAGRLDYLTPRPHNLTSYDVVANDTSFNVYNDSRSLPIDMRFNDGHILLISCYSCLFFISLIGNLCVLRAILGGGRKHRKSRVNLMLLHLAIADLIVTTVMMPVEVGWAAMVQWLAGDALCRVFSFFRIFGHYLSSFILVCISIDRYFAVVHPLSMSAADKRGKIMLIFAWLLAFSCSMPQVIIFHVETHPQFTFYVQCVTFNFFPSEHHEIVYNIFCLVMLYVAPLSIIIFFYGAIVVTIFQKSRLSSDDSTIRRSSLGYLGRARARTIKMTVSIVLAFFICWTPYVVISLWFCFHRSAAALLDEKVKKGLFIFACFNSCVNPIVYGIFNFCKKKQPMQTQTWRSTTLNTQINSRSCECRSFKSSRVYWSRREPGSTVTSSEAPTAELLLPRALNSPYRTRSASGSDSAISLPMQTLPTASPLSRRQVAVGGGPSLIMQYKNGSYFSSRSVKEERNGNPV
Protocol: as §1, §2, §3

[4] = tested on: red and black epidermal chromatophores, dactyl of the 5th walking leg; test: Chromatophore pigment migration bioassay in vivo; design: species or system Carcinus maenas; conditions: for pigment migration (concentration) in red and black epidermal chromatophores: injection after 40 min dispersion with 5 pmol PDH, 0.1–100 pmol/crab for RPCH or AKH, 100 pmol/crab for CRZ or ACP, scored 5 and 20 min after injection
Protocol: Pigmentary effector activity of […], Locusta migratoria AKH-I, and ACP were measured in vivo, using small (15-20 mm carapace width) C. maenas. Crabs were firstly adapted to a white background, light intensity 300 lx for 1 h. Pigment dispersion of red and black chromatophores in the […] of the 5th walking leg were microscopically observed and indices of dispersion scored according to Hogben and Slome ([1931]). Red and black chromatophores were firstly fully dispersed by injection of 5 pmol C. maenas pigment dispersing hormone ([…]) in 10 μl saline into the hypobranchial sinus, using hand-drawn glass microcapillaries. Chromatophore dispersion indices were scored at 0, 20, 40 min. Peptides were then injected and chromatophores subsequently scored after 5 and 20 min.

[5] = tested on: putative adipokinetic hormone/corazonin-related peptide receptor (ACPR); test: Receptor assay with putative ACPR; assay type: cell-based, Carcinus maenas
Protocol: as §1
Cells grown in a monolayer to approximately 60% confluency in T75 flasks were transfected with pcDNA3.1 constructs using FugeneHD (Promega) according to the manufacturer's recommendations. Briefly, transfection medium was prepared by combining 800 μl Opti-MEM® (Gibco) with 10 μg vector and 30 μl Fugene HD in a 2 ml polystyrene tube and incubated for 10 min at room temperature. […]
On the day of the assay, cells were detached from the culture flask by incubating for 12 min in 5 ml 0.2% EDTA in PBS. […] Cell suspensions were gently stirred and injected in 50 μl aliquots into each well using a Mithras LB 940 microplate reader (Berthold Technologies, Bad-Wildbad, Germany) and light emission (Ca^2+ response) recorded for 30 s. Cells were then lysed by injection of 0.3% Triton-X in BSA medium and light emission recorded for a further 10 s to measure total Ca^2+ response. […] Data was analyzed using MikroWin v5.18 (Mikrotek Laborsysteme GmbH) and SigmaPlot v.13 (Systat Software, Inc.). […]

[6] = Hemolymph triglyceride levels after peptide injection; assay type: in vivo, Carcinus maenas
Protocol: (§4) Adipokinetic and glucose mobilizing activity of […] and ACP were performed by measurement of triglycerides in hemolymph ([…] et al., [2014]) and glucose (Chung and Webster, [1996]). Hemolymph samples (ca. 100 μl) were taken from crabs injected with each peptide at 0 and 90 min, and subsequently assayed.

[7] = Hemolymph glucose levels after peptide injection; assay type: in vivo, Carcinus maenas; conditions: injection 100, 10 pmol per crab
Protocol: as §4

[8] = Hemolymph triglyceride levels after peptide injection; assay type: in vivo, Carcinus maenas; conditions: lipid mobilization bioassay

C[C@@H](O)[C@H](NC(=O)[C@H](Cc1c[nH]c2ccccc12)NC(=O)CNC(=O)[C@H](Cc1c[nH]cn1)NC(=O)[C@H](CO)NC(=O)[C@H](Cc1ccc(O)cc1)NC(=O)[C@@H](NC(=O)[C@H](Cc1ccccc1)NC(=O)[C@@H](NC(=O)[C@@H]1CCC(=O)N1)[C@@H](C)O)[C@@H](C)O)C(=O)N[C@@H](CC(N)=O)C(N)=O [Thr^4, His^7-CRZ] (HELM PEPTIDE1{[Glp].T.F.T.Y.S.H.G.W.T.N.[am]}$$$$V2.0)
EC50 [1]: 0.14 nM | bioluminescent response at CRZR compared with the homologous crab/insect ligand (Arg^7-CRZ) [1]: somewhat higher bioluminescent response at lower doses

proctolin [reference compound]
kind of response on semi-isolated hearts ([2]; positive control): very pronounced inotropic response | threshold response on semi-isolated hearts ([2]; positive controls, CCAP: most sensitive preparations): about 10^−9 M

GnRH: evolutionarily-related peptide (mammalian) GnRH, gonadotropin releasing hormone [reference compound]
activation of CRZR ([1]; even at micromolar concentrations): Neither receptor was activated | binding to / activation of RPCHR [3]: Neither receptor was activated

CC(C)C[C@H](NC(=O)[C@@H]1CCC(=O)N1)C(=O)N[C@@H](CC(N)=O)C(=O)N[C@@H](Cc1ccccc1)C(=O)N[C@H](C(=O)N1CCC[C@H]1C(=O)N[C@@H](CC(N)=O)C(=O)N[C@@H](Cc1c[nH]c2ccccc12)C(=O)NCC(=O)N[C@H](C(N)=O)[C@@H](C)O)[C@@H](C)O [Lom AKH-1, reference compound] (HELM PEPTIDE1{[Glp].L.N.F.T.P.N.W.G.T.[am]}$$$$V2.0)
EC50 [3]: 0.07 nM | pigment migration (concentration) in red and black epidermal chromatophores [4]: slightly less effective compared to RPCH

NSELINSILGLPKVMNDA-NH2 [PDH, C. maenas pigment dispersing hormone, reference compound]
pigment dispersion of chromatophores ([4]; injection of 5 pmol, over 40 min): expansion of both red and black chromatophores

C[C@@H](O)[C@H](NC(=O)[C@H](Cc1c[nH]c2ccccc12)NC(=O)CNC(=O)[C@H](Cc1c[nH]cn1)NC(=O)[C@H](CO)NC(=O)[C@H](Cc1ccc(O)cc1)NC(=O)[C@H](CCC(N)=O)NC(=O)[C@H](Cc1ccccc1)NC(=O)[C@@H](NC(=O)[C@@H]1CCC(=O)N1)[C@@H](C)O)C(=O)N[C@@H](CC(N)=O)C(N)=O [His^7-CRZ] (HELM PEPTIDE1{[Glp].T.F.Q.Y.S.H.G.W.T.N.[am]}$$$$V2.0)
EC50 [1]: 0.3 nM | bioluminescent response at CRZR compared with the homologous crab/insect ligand (Arg^7-CRZ) [1]: somewhat higher bioluminescent response at lower doses

CC[C@H](C)[C@H](NC(=O)[C@@H]1CCC(=O)N1)C(=O)N[C@H](C(=O)N[C@@H](Cc1ccccc1)C(=O)N[C@@H](CO)C(=O)N[C@@H](CCCNC(=N)N)C(=O)N[C@@H](CO)C(=O)N[C@@H](Cc1c[nH]c2ccccc12)C(=O)N[C@H](C(=O)N1CCC[C@H]1C(=O)N[C@@H](CCC(N)=O)C(N)=O)C(C)C)[C@@H](C)O [ACP] (HELM PEPTIDE1{[Glp].I.T.F.S.R.S.W.V.P.Q.[am]}$$$$V2.0)
EC50 [3]: > 20000 nM | binding to / activation of RPCHR [3]: vanishingly small dose-dependent binding | binding to putative ACPR [5]: did not bind | pigment migration (concentration) in red and black epidermal chromatophores [4]: completely ineffective | hemolymph triglyceride levels, 0 min ([6]; injection 100 pmol per crab, 0 min, mean ± 1 SEM, n = 6, SEM): 1.47 ± 0.44 µg/µL | hemolymph triglyceride levels, 90 min ([6]; injection 100 pmol per crab, 90 min, mean ± 1 SEM, n = 6, no significant change over 90 min, SEM): 1.28 ± 0.34 µg/µL | activity on circulating triglycerides ([6]; injection 100, 10 pmol per crab): neither CRZ nor ACP exhibited any biological activity | activity on circulating glucose [7]: neither CRZ nor ACP exhibited any biological activity | cardioacceleratory effect on semi-isolated hearts ([2]; concentrations up to 10^−6 M, 20°C): completely without cardioacceleratory effect | effect on hemolymph diacylglycerol levels [8]: completely without effect
